Assay results taken from US9657015B2, “Substituted bicyclic dihydropyrimidinones and their use as inhibitors of neutrophil elastase activity” (Boehringer Ingelheim International GmbH, priority 2014, dated 2017).
Values after ≈ are worked out from the molar mass of the structure shown.

Tests used:
[1] = Metabolic stability with human hepatocytes; type: in vitro ADME; conditions: human hepatocyte suspension (typically cryopreserved), 1 μM test compound, six hours, scaled with well stirred model
Protocol: Assay for the Determination of Metabolic Stability with Human Hepatocytes
The metabolic degradation of the test compound is assayed in a human hepatocyte suspension. Human hepatocytes (typically cryopreserved) are incubated in an appropriate buffer system (e.g. Dulbecco's modified eagle medium plus 3.5 μg glucagon/500 mL, 2.5 mg insulin/500 mL and 3.75 mg/500 mL hydrocortison) containing 5% species serum. Following a (typically) 30 min preincubation in an incubator (37° C., 10% CO2), 5 μl of test compound solution (80 μM; from 2 mM stock solution in DMSO diluted 1:25 with medium) are added into 395 μl hepatocyte suspension (cell density in the range 0.25-5*10^6 cells/mL, typically 1*10^6 cells/mL; final concentration of test compound 1 μM, final DMSO concentration 0.05%). The cells are incubated for six hours (incubator, orbital shaker) and samples (25 μl) are taken at 0, 0.5, 1, 2, 4 and 6 hours. Samples are transferred into acetonitrile and pelleted by centrifugation (5 min) The supernatant is transferred to a new 96-deepwell plate, evaporated under nitrogen and resuspended. The decline of parent compound is analyzed by LC-MS/MS.
The intrinsic clearance CL_[…] is calculated as follows: CL_[…]=Dose/AUC=(C0/CD)/(AUD+clast/k)*1′000/60 (C0: initial concentration in the incubation [μM], CD: cell density of vital cells [10^6 cells/mL], AUD: area under the data [μM*h], clast: concentration of last data point [μM], k: slope of the regression line for parent decline [h^−1])
The calculated in vitro hepatic intrinsic clearance can be scaled up to the intrinsic in vivo hepatic clearance and used to predict hepatic in vivo blood clearance (CL) by the use of a liver model (well stirred model): CL_[…]_INVIVO [ml/min/kg]=(CL_[…] [μL/min/10^6 cells]*hepatocellularity [10^6 cells/g liver]*liver factor [g/kg bodyweight])/1′000 CL [ml/min/kg]=CL_[…]_INVIVO [ml/min/kg]*hepatic blood flow [ml/min/kg]/(CL_[…]_INVIVO [ml/min/kg]+hepatic blood flow [ml/min/kg]) Qh [%]=CL [ml/min/kg]/hepatic blood flow [ml/min/kg]) (Hepatocellularity, human: 120*10^6 cells/g liver; liver factor, human: 25.7 g/kg bodyweight; blood flow, human: 21 ml/(min*kg))

[2] = target: neutrophil elastase in human plasma (Homo sapiens (Human), UniProt P08246); experiment: Neutrophil elastase inhibitory activity in human plasma; type: biochemical; conditions: human plasma assay (zymosan-stimulated blood plasma), substrate 250 μM, pH 7.5
neutrophil elastase in human plasma, sequence (P08246 30-247): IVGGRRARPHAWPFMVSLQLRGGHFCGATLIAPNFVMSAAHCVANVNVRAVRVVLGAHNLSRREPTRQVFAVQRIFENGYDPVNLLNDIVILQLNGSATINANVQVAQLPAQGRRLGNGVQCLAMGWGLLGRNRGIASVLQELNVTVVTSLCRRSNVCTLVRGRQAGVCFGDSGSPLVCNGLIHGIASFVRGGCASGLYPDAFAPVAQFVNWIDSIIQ
Protocol: Assay for the Determination of Neutrophil Elastase Inhibitory Activity in Human Plasma
Citrated blood from human healthy donors is mixed with zymosan suspension and incubated at room temperature. This leads to the stimulation of neutrophils and the release of neutrophil elastase into the plasma. The stimulated blood is centrifuged to generate the neutrophil elastase enriched plasma.
Preparation of Zymosan Working Solution:
Various concentrations of the neutrophil elastase inhibitor are incubated with plasma. […] A dose response curve is generated to calculate the EC50 of the inhibitor.

[3] = Drug transport across human Caco-2 cells; type: in vitro ADME; conditions: human, Caco-2 monolayers, pH 7.2, 37° C.; for Papp A→B at 10 µM: apical-to-basal, read-out: PEAB; for Papp B→A at 10 µM: basal-to-apical, read-out: PEBA
Excerpt: (§1) Assay for Determination of Drug Transport Across Human Caco-2 Cells
(§2) The assay provides information on the potential of a compound to pass the cell membrane, on the extent of oral absorption as well as on whether the compound is actively transported by uptake and/or efflux transporters. For the measurement of permeability across polarized, confluent human cancer colon carcinoma cells 2 (Caco-2) cell monolayers grown on permeable filter supports are used as the in vitro absorption model.
(§3) Apparent permeability coefficients (PE) of the compounds across the Caco-2 monolayers are measured (pH 7.2, 37° C.) in apical-to-basal (AB) (absorptive) and basal-to-apical (BA) (secretory) transport direction. AB permeability (PEAB) represents drug absorption from the intestine into the blood and BA permeability (PEBA) drug secretion from the blood back into the intestine via both passive permeability as well as active transport mechanisms mediated by efflux and uptake transporters that are expressed on the Caco-2 cells. The compounds are assigned to permeability/absorption classes by comparison of the AB permeabilities with the AB permeabilities of reference compounds with known in vitro permeability and oral absorption in the human. Identical or similar permeabilities in both transport directions indicate passive permeation, vectorial permeability points to additional active transport mechanisms. […] Active transport is concentration-dependently saturable.
(§4) Caco-2 cells (1-2*10^5 cells/cm^2 area) are seeded on filter inserts (Costar transwell polycarbonate or PET filters, 0.4 μm pore size) and cultured (DMEM) for 10 to 25 days. Compounds are dissolved in appropriate solvent (like DMSO, 1-20 mM stock solutions). Stock solutions are diluted with HTP-4 buffer (128.13 mM NaCl, 5.36 mM KCl, 1 mM MgSO4, 1.8 mM CaCl2, 4.17 mM NaHCO3, 1.19 mM Na2HPO4×7H2O, 0.41 mM NaH2PO4×H2O, 15 mM HEPES, 20 mM glucose, pH 7.2) to prepare the transport solutions (typically 10 μM compound, final DMSO<=0.5%). The transport solution (TL) is applied to the apical or basolateral donor side for measuring A-B or B-A permeability (3 filter replicates), respectively. The receiver side contains HTP-4 buffer supplemented with 2% BSA. Samples are collected at the start and end of experiment from the donor and at various time intervals for up to 2 hours also from the receiver side for concentration measurement by LC-MS/MS or scintillation counting. Sampled receiver volumes are replaced with fresh receiver solution.
(§5) The apparent permeability coefficients (PEAB and PEBA) of selected compounds in the Caco-2 drug transport assay described above are listed in Table 9.

[4] = Metabolic stability with human liver microsomes; type: in vitro ADME; conditions: pH 7.6; pooled human liver microsomes, 37° C., 1 μM test compound, 1 mg/ml microsomal protein, NADPH; read-out: t1/2 INVITRO
[5] = target: Human neutrophil elastase (Homo sapiens (Human), UniProt P08246); experiment: Human Neutrophil Elastase Assay; type: biochemical; conditions: substrate MeOSuc-Ala-Ala-Pro-Val-AMC 250 μM, pH 7.5, room temperature
Human neutrophil elastase, sequence (P08246 30-247): as above
Protocol: The following buffers were used: Compound buffer: 100 mM Tris, 500 mM NaCl, adjusted to pH 7.5; Assay buffer: 100 mM Tris, 500 mM NaCl, adjusted to pH 7.5, containing 0.01% BSA.
Assay conditions: Test compounds were prediluted in DMSO and subsequently in compound buffer (5% DMSO final). […] After inactivation of the enzyme, fluorescence intensities were measured at 380 nm excitation and 460 nm emission wavelengths.
Each plate contains wells with a high value control (DMSO+enzyme+substrate) and wells with a low value control (DMSO+inactivated enzyme+substrate). IC50 values were estimated using a sigmoidal concentration response curve with variable slope. Means of low values were taken as 0%, means of high values as 100%.

[6] = Aqueous solubility (High Throughput Method); type: physicochemical; conditions: McIlvaine buffer pH 6.8, 2.5% DMSO, 24 h shaking; for solubility at 24 h: McIlvaine buffer pH 6.8 with 2.5% DMSO, aqueous buffer, kinetic from dmso stock
Protocol: Assay for Determination of Aqueous Solubility (“High Throughput Method”)
Starting from a 10 mM DMSO stock solution, aliquots are diluted with acetonitrile/water (1/1) and McIlvaine buffer pH 6.8, respectively. After 24 h of shaking, the solutions or suspensions are filtered and analyzed by LC-UV. The amount dissolved in buffer is compared to the amount dissolved in the acetonitrile/water (1/1) solution. Solubility is measured from 0.001 to 0.125 mg/ml at a DMSO concentration of 2.5%. If more than 90% of the compound is dissolved in buffer, the value is marked with “>”.

[7] = Aqueous solubility (Shaked Flask Method); type: physicochemical; conditions: aqueous buffer, thermodynamic from solid, pH 6.8 (McIlvaine buffer)
Protocol: Assay for Determination of Aqueous Solubility (“Shaked Flask Method”)
Saturated solutions are prepared in well plates by adding an appropriate volume of selected aqueous media (typically in the range of 0.25-1.5 ml) into each well which contains a known quantity of solid drug substance (typically in the range 0.5-5.0 mg). The wells are shaken or stirred for a predefined time period (typically in a range of 2-24 h) and then filtered using appropriate filter membranes (typically PTFE-filters with 0.45 μm pore size). Filter absorption is avoided by discarding the first few drops of filtrate. The amount of dissolved drug substance is determined by UV spectroscopy or by HPLC with UV-detection. In addition, the pH of the aqueous saturated solution is measured using a glass-electrode pH meter.

Caco-2 cells = experiment: Drug transport across human Caco-2 cells; type: in vitro ADME; conditions: Caco-2 monolayers, pH 7.2, 37° C.
Excerpt: as §1, §2, §3, §4, §5

Structure (SMILES): CN1C(=O)N(c2cccc(C(F)F)c2)C2=C(C(=O)NCC2)[C@H]1c1ccc(C#N)cc1 [Example 8A, (R)-4-(1-(3-(Difluoromethyl)phenyl)-3-methyl-2,5-dioxo-1,2,3,4,5,6,7,8-octahydropyrido[4,3-d]pyrimidin-4-yl)benzonitrile]
- CLhep predicted at 1 μM [1]: 2 mL/min/kg
- IC50 [2]: < 1 nM
- Papp A→B at 10 µM [3]: 20 ×10⁻⁶ cm/s
- Papp B→A at 10 µM [3]: 97 ×10⁻⁶ cm/s
- half-life at 1 μM [4]: > 2.17 h
- IC50 [5]: < 1 nM
- solubility at 24 h [6]: 61 µg/mL (≈ 149 µM)

Structure (SMILES): COC(=O)CN1C(=O)N(c2cccc(C(F)(F)F)c2)C2=C(C(=O)NCC2)C1c1ccc(C#N)cc1 (centres unmarked) [Example 9, Methyl 2-(4-(4-Cyanophenyl)-2,5-dioxo-1-(3-(trifluoromethyl)phenyl)-1,2,5,6,7,8-hexahydropyrido[4,3-d]pyrimidin-3(4H)-yl)acetate]
- IC50 [2]: 3.1 nM
- Papp A→B at 10 µM [3]: 6.1 ×10⁻⁶ cm/s
- Papp B→A at 10 µM [3]: 63 ×10⁻⁶ cm/s
- half-life at 1 μM [4]: > 2.17 h
- IC50 [5]: 2.3 nM
- solubility at 24 h [6]: 88 µg/mL (≈ 182 µM)

Structure (SMILES): CN1C(=O)N(c2cccc(C(F)(F)F)c2)C2=C(C(=O)NCC2)[C@H]1c1ccc(C#N)cc1-c1cnco1 [Example 30A, 4-[(4R)-3-Methyl-2,5-dioxo-1-[3-(trifluoromethyl)phenyl]-1H,2H,3H,4H,5H,6H,7H,8H-pyrido[4,3-d]pyrimidin-4-yl]-3-(1,3-oxazol-5-yl)-benzonitrile]
- CLhep predicted at 1 μM [1]: 3 mL/min/kg
- IC50 [2]: < 1 nM
- Papp A→B at 10 µM [3]: 11 ×10⁻⁶ cm/s
- Papp B→A at 10 µM [3]: 85 ×10⁻⁶ cm/s
- half-life at 1 μM [4]: > 2.17 h
- solubility [7]: ≥ 10 µg/mL
- solubility at 24 h [6]: 60 µg/mL (≈ 122 µM)

Structure (SMILES): CN1C(=O)N(c2cccc(C(F)(F)F)c2)C2=C(C(=O)NCC2)[C@H]1c1ccc(C#N)cc1CO [Example 32A, 3-(Hydroxymethyl)-4-[(4R)-3-methyl-2,5-dioxo-1-[3-(trifluoromethyl)phenyl]-1H,2H,3H,4H,5H,6H,7H,8H-pyrido[4,3-d]pyrimidin-4-yl]benzonitrile]
- CLhep predicted at 1 μM [1]: 3 mL/min/kg
- IC50 [2]: < 1 nM
- Papp A→B at 10 µM [3]: 6.9 ×10⁻⁶ cm/s
- Papp B→A at 10 µM [3]: 61 ×10⁻⁶ cm/s
- IC50 [5]: < 1 nM
- solubility [7]: ≥ 10 µg/mL
- solubility at 24 h [6]: 19 µg/mL (≈ 41.6 µM)

Structure (SMILES): CN1C(=O)N(c2cccc(C(F)(F)F)c2)C2=C(C(=O)NCC2)C1c1ccc(C#N)cc1-c1ccncn1 (centres unmarked) [Example 35, 4-{3-Methyl-2,5-dioxo-1-[3-(trifluoromethyl)phenyl]-1H,2H,3H,4H,5H,6H,7H,8H-pyrido[4,3-d]pyrimidin-4-yl}-3-(pyrimidin-4-yl)benzonitrile]
- CLhep predicted at 1 μM [1]: 1 mL/min/kg
- IC50 [2]: < 1 nM
- Papp A→B at 10 µM [3]: 5.7 ×10⁻⁶ cm/s
- Papp B→A at 10 µM [3]: 100 ×10⁻⁶ cm/s
- half-life at 1 μM [4]: > 2.17 h
- IC50 [5]: < 1 nM
- solubility at 24 h [6]: 84 µg/mL (≈ 167 µM)

Structure (SMILES): CN1CCC2=C(C1=O)C(c1ccc(C#N)cc1-c1cnn(C)c1)N(C)C(=O)N2c1cccc(C(F)(F)F)c1 (centres unmarked) [Example 36, 4-{3,6-Dimethyl-2,5-dioxo-1-[3-(trifluoromethyl)phenyl]4H,2H,3H,4H,5H,6H,7H,8H-pyrido[4,3-d]pyrimidin-4-yl}-3-(1-methyl-1H-pyrazol-4-yl)benzonitrile]
- IC50 [2]: 2.3 nM
- Papp A→B at 10 µM [3]: 30 ×10⁻⁶ cm/s
- Papp B→A at 10 µM [3]: 83 ×10⁻⁶ cm/s
- half-life at 1 μM [4]: > 2.17 h
- IC50 [5]: < 1 nM
- solubility [7]: ≥ 10 µg/mL
- solubility at 24 h [6]: 42 µg/mL (≈ 80.7 µM)

Structure (SMILES): CN1CCC2=C(C1=O)C(c1ccc(C#N)cc1-c1cccnc1)N(C)C(=O)N2c1cccc(C(F)(F)F)c1 (centres unmarked) [Example 36.1]
- IC50 [2]: 1.8 nM
- PEAB (Caco-2 cells; apical-to-basal): 26 ×10⁻⁶ cm/s
- PEBA (Caco-2 cells; basal-to-apical): 110 ×10⁻⁶ cm/s
- IC50 [5]: 1.4 nM
- Aqueous solubility [6]: 70 µg/mL

Structure (SMILES): CN1CCC2=C(C1=O)C(c1ccc(C#N)cc1-c1cnco1)N(C)C(=O)N2c1cccc(C(F)(F)F)c1 (centres unmarked) [Example 37, 4-{3,6-Dimethyl-2,5-dioxo-1-[3-(trifluoromethyl)phenyl]-1H,2H,3H,4H,5H,6H,7H,8H-pyrido[4,3-d]pyrimidin-4-yl}-3-(1,3-oxazol-5-yl)benzonitrile]
- IC50 [2]: 1.1 nM
- Papp A→B at 10 µM [3]: 32 ×10⁻⁶ cm/s
- Papp B→A at 10 µM [3]: 90 ×10⁻⁶ cm/s
- half-life at 1 μM [4]: > 2.17 h
- IC50 [5]: < 1 nM
- solubility [7]: ≥ 10 µg/mL
- solubility at 24 h [6]: 60 µg/mL (≈ 118 µM)

Structure (SMILES): CN1CCC2=C(C1=O)C(c1ccc(C#N)cc1C(N)=O)N(C)C(=O)N2c1cccc(C(F)(F)F)c1 (centres unmarked) [Example 39, 5-Cyano-2-{3,6-dimethyl-2,5-dioxo-1-[3-(trifluoromethyl)phenyl]-1H,2H,3H,4H,5H,6H,7H,8H-pyrido[4,3-d]pyrimidin-4-yl}benzamide]
- IC50 [2]: < 1 nM
- Papp A→B at 10 µM [3]: 4.2 ×10⁻⁶ cm/s
- Papp B→A at 10 µM [3]: 59 ×10⁻⁶ cm/s
- half-life at 1 μM [4]: > 2.17 h
- IC50 [5]: < 1 nM
- solubility at 24 h [6]: 78 µg/mL (≈ 161 µM)

Structure (SMILES): CN1C(=O)N(c2cccc(C(F)(F)F)c2)C2=C(C(=O)NCC2)C1c1ccc(C#N)cc1S(C)(=O)=O (centres unmarked) [Example 40, 3-Methanesulfonyl-4-{3-methyl-2,5-dioxo-1-[3-(trifluoromethyl)phenyl]-1H,2H,3H,4H,5H,6H,7H,8H-pyrido[4,3-d]pyrimidin-4-yl}benzonitrile]
- CLhep predicted at 1 μM [1]: 1 mL/min/kg
- IC50 [2]: < 1 nM
- Papp A→B at 10 µM [3]: 17 ×10⁻⁶ cm/s
- Papp B→A at 10 µM [3]: 87 ×10⁻⁶ cm/s
- half-life at 1 μM [4]: > 2.17 h
- IC50 [5]: < 1 nM
